Here are results for two molecules from patent US6586455B1, “Treatment of liposarcomas using a combination of thiazolidinediones and retinoid X receptor selective agonists” (The Salk Institute for Biological Studies, priority 1996, dated 2003).

What all share (type): cell-based
The test system of one assay is NIH-vector cells. In words: Adipocyte differentiation, oil red O staining, NIH-vector cells. The note with it: 7 days; for % lipid containing cells: range over three experiments. On the procedure: Simultaneous exposure of competent cells to both PPARγ and RXR-specific ligand was investigated to determine if such combination might provide a stronger adipogenic signal than a PPARγ ligand alone. The ability of the. […] It has previously been shown that wild-type NIH-3T3 cells express RXRα, but not PPARγ. NIH-vector and NIH-PPARγ cells were cultured as described in the Examples. […] After an additional four days of culture, cells were fixed and stained with oil red O. Data are presented in Table 1 as the range of morphologically recognizable differentiation observed for each line over three separate experiments.

For another assay, the system named is NIH-PPARγ cells. In words: Adipocyte differentiation, oil red O staining, NIH-3T3 fibroblasts expressing PPARγ. The note with it: 7 days; for % lipid containing cells: NIH-PPARγ cells, range over three experiments. As for the experimental part: Simultaneous exposure of competent cells to both PPARγ and RXR-specific ligand was investigated to determine if such combination might provide a stronger adipogenic signal than a PPARγ ligand alone. The ability of the. […] It has previously been shown that wild-type NIH-3T3 cells express RXRα, but not PPARγ. NIH-vector and NIH-PPARγ cells were cultured as described in the Examples.

Another assay deals with LS857 cells. In words: Differentiation / lipid accumulation of primary human liposarcoma cells LS857. The note with it: 7 days. As for the experimental part:
(§1) Liposarcomas have presumably acquired one or more genetic defects that interfere with the course of normal adipocyte development. The observation that PPARγ is expressed consistently in these tumors raised the possibility that the malignant cells might be forced to complete the differentiation program by maximally activating the PPARγ pathway. To address this possibility, primary cells isolated from three human liposarcomas were cultured in vitro. Primary cell strains LS857 and LS175 were derived from well differentiated liposarcomas and LS707 was derived from an intermediate grade myxoid/round cell liposarcoma (see Table 3). High grade pleomorphic liposarcoma cells could not be expanded to sufficient numbers to permit studies of differentiation. A primary leiomyosarcoma cell line LM203 was cultured as a control. To confirm that these cultures consisted of malignant tumor-derived cells, cytogenetic analysis was performed.
When cultured in the presence of fetal bovine serum and insulin, conditions permissive for adipocyte differentiation, all three cell lines maintain a fibroblastic morphology. LS175 cells contained small amounts of stainable lipid under these conditions. […] The degree of morphologically recognizable differentiation varied from 40% in the LS857 cells to 75% in the LS175 cells. […] This experiment was performed at least twice with each cell strain with quantitatively and qualitatively similar results.
The ability of LG268 to promote differentiation of human liposarcoma cells was then examined. […] To further characterize the effects of PPARγ and RXR ligands on liposarcoma cells, the expression of adipocyte-specific markers were examined by Northern blotting. LS857 cells, like the tumor from which they were derived, express PPARγ mRNA. Treatment of LS857 cells with pioglitazone leads to the induction of two markers of terminal adipocyte differentiation, the MRNAs encoding aP2 and adipsin. […]

The next assay deals with LS175 cells. In words: Differentiation / lipid accumulation of primary human liposarcoma cells LS175. The note with it: 10 μM, 7 days. As for the experimental part:
as §1
When cultured in the presence of fetal bovine serum and insulin, conditions permissive for adipocyte differentiation, all three cell lines maintain a fibroblastic morphology. LS175 cells contained small amounts of stainable lipid under these conditions. […] The degree of morphologically recognizable differentiation varied from 40% in the LS857 cells to 75% in the LS175 cells. […] […]. […]

With `Cc1cc2c(cc1C1(c3ccc(C(=O)O)cn3)CC1)C(C)(C)CCC2(C)C` [LG268, 6-[1-(8 pentamethyl-5,6,7,8-tetrahydronaphthalen-2-yl)cyclopropyl]nicotinic acid], the results for the “% lipid containing cells” value in the assay on NIH-vector cells (50 nM LG268 alone) and in the assay on NIH-PPARγ cells (50 nM LG268 alone) were 0% and 50-65%, respectively. Besides, the “adipogenic effect (in words)” value in the assay on NIH-vector cells was “no effect”. In the assay on NIH-PPARγ cells (confluent NIH-PPARγ cells, 50 nM LG268, 1 μM pioglitazone), the “stimulation of adipocyte differentiation (in words)” value is “significant stimulation of adipocyte differentiation”. Further, the “lipid accumulation, oil red O, macroscopic view of culture dishes” value with LS857 cells (LS857, 5 μM thiazolidinedione, 50 nM LG268, four more days of culture) was “significant lipid accumulation”. Moreover, the “adipocyte differentiation (in words)” value in the assay on LS857 cells (LS857 cells, 50 nM LG268, 10 μM pioglitazone) is “significant degree of adipocyte differentiation”.
Consider `CCc1ccc(CCOc2ccc(CC3SC(=O)NC3=O)cc2)nc1` (stereo not shown) [pioglitazone], for which the entries for the “% lipid containing cells” value in the assay on NIH-vector cells (1 μM pioglitazone alone) and in the assay with NIH-PPARγ cells (1 μM pioglitazone alone) were 0% and 60-70%, respectively. Moreover, the “degree of morphologically recognizable differentiation” value in the assay on LS175 cells is 75%; with LS857 cells (LS857 cells, 10 μM), 40%.
